According to the supplement of paper PMC10307832:

Assays:
Assay in all cases: relative viability (nuclei count vs DMSO), 5 days (fraction); higher = more cells survive
OSI-027 + Crizotinib = compound: COc1cccc2cc(-c3nc([C@H]4CC[C@H](C(=O)O)CC4)n4ncnc(N)c34)[nH]c12 [OSI-027] + C[C@@H](Oc1cc(-c2cnn(C3CCNCC3)c2)cnc1N)c1c(Cl)ccc(F)c1Cl [Crizotinib] (partner 1 µM)
Procedure, shortened: (§1)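 Five library-drug doses in √10 steps were combined with a fixed anchor-drug dose, or a single drug was given alone, by pin tool to lung cancer cell lines in 1536-well plates the day after seeding. Nuclei were stained and counted after 5 days. Relative viability is the nuclei count in treated wells over that in vehicle wells, taken as the median of duplicate plates.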

Alpelisib + Palbociclib = compound: Cc1nc(NC(=O)N2CCC[C@H]2C(N)=O)sc1-c1ccnc(C(C)(C)C(F)(F)F)c1 [Alpelisib] + CC(=O)c1c(C)c2cnc(Nc3ccc(N4CCNCC4)cn3)nc2n(C2CCCC2)c1=O [Palbociclib] (partner 0.5 µM)
Procedure, shortened: as §1

Alpelisib + Pictilisib = compound: Cc1nc(NC(=O)N2CCC[C@H]2C(N)=O)sc1-c1ccnc(C(C)(C)C(F)(F)F)c1 [Alpelisib] + CS(=O)(=O)N1CCN(Cc2cc3nc(-c4cccc5[nH]ncc45)nc(N4CCOCC4)c3s2)CC1 [Pictilisib] (partner 1 µM)
Procedure, shortened: as §1

Alpelisib + Tozasertib = compound: Cc1nc(NC(=O)N2CCC[C@H]2C(N)=O)sc1-c1ccnc(C(C)(C)C(F)(F)F)c1 [Alpelisib] + Cc1cc(Nc2cc(N3CCN(C)CC3)nc(Sc3ccc(NC(=O)C4CC4)cc3)n2)n[nH]1 [Tozasertib] (partner 0.1 µM)
Procedure, shortened: as §1

Cell Line	relative viability (OSI-027 + Crizotinib; first compound 0.01 µM)	relative viability (OSI-027 + Crizotinib; first compound 0.03162 µM)	relative viability (OSI-027 + Crizotinib; first compound 0.1 µM)	relative viability (OSI-027 + Crizotinib; first compound 0.3162 µM)	relative viability (OSI-027 + Crizotinib; first compound 1 µM)	relative viability (Alpelisib + Palbociclib; first compound 0.04 µM)	relative viability (Alpelisib + Palbociclib; first compound 0.1265 µM)	relative viability (Alpelisib + Palbociclib; first compound 0.4 µM)	relative viability (Alpelisib + Palbociclib; first compound 1.265 µM)	relative viability (Alpelisib + Palbociclib; first compound 4 µM)	relative viability (Alpelisib + Pictilisib; first compound 0.04 µM)	relative viability (Alpelisib + Pictilisib; first compound 0.1265 µM)	relative viability (Alpelisib + Pictilisib; first compound 0.4 µM)	relative viability (Alpelisib + Pictilisib; first compound 1.265 µM)	relative viability (Alpelisib + Pictilisib; first compound 4 µM)	relative viability (Alpelisib + Tozasertib; first compound 0.04 µM)	relative viability (Alpelisib + Tozasertib; first compound 0.1265 µM)	relative viability (Alpelisib + Tozasertib; first compound 0.4 µM)	relative viability (Alpelisib + Tozasertib; first compound 1.265 µM)	relative viability (Alpelisib + Tozasertib; first compound 4 µM)
NCI-H2347	0.668	0.609	0.673	0.388	0.405	0.417	0.45	0.407	0.474	0.423	0.757	0.776	0.571	0.648	0.554	0.649	0.582	0.682	0.39	0.361
NCI-H2405	0.856	0.729	0.814	0.631	0.338	0.515	0.536	0.52	0.43	0.462	0.443	0.502	0.527	0.488	0.39	0.725	0.68	0.825	0.682	0.625
NCI-H3122	0.261	0.26	0.266	0.215	0.163	0.163	0.162	0.188	0.185	0.144	0.622	0.69	0.572	0.58	0.53	0.334	0.387	0.35	0.255	0.263
PC-3 [JPC-3]	0.999	0.943	1.02	0.984	0.551	0.591	0.556	0.581	0.521	0.559	0.76	0.715	0.737	0.767	0.676	0.898	0.873	0.968	0.84	0.806
PC-14	1	0.898	0.95	0.934	0.581	0.556	0.499	0.602	0.464	0.497	0.703	0.858	0.898	0.6	0.611	0.588	0.612	0.655	0.44	0.543
RERF-LC-KJ	0.884	0.938	0.861	0.805	0.484	1.1	1.03	1.16	0.759	0.928	0.557	0.583	0.559	0.268	0.46	0.466	0.455	0.572	0.363	0.349
SK-LU-1	0.937	0.789	0.644	0.531	0.358	0.398	0.372	0.386	0.326	0.377	0.592	0.484	0.656	0.594	0.536	0.347	0.289	0.372	0.256	0.216
SK-MES-1	0.995	0.933	0.997	0.965	0.52	0.361	0.307	0.313	0.254	0.3	0.361	0.39	0.467	0.333	0.316	0.937	0.901	1.03	0.745	0.89
SW 1573	0.855	0.832	0.687	0.655	0.566	0.409	0.401	0.366	0.201	0.284	0.498	0.506	0.557	0.459	0.352	0.172	0.149	0.175	0.151	0.166
